Data from ChEMBL document CHEMBL1201862, “PubChem BioAssay data set” (2004).
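Results reflect a 48-hour exposure of cells in 96-well plates to compound at five concentrations. GI50: concentration for 50% inhibition of growth.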 Activity calls are given as the source filed them. No stated cut-off is given here; in the data, active = GI50 up to about 1.1 µM and inactive = higher.

How the values were obtained:
Test in all cases: NCI tumour cell line growth inhibition, 48 h
M14 = system: M14
SF-539 = system: SF-539
OVCAR-3 = system: OVCAR-3
MDA-MB-435 = system: MDA-MB-435
EKVX = system: EKVX
KM12 = system: KM12
786-0 = system: 786-0
SNB-19 = system: SNB-19
UO-31 = system: UO-31
SK-MEL-28 = system: SK-MEL-28
SF-268 = system: SF-268
HCT-116 = system: HCT-116
ACHN = system: ACHN
PC-3 = system: PC-3
SK-MEL-5 = system: SK-MEL-5
HT-29 = system: HT-29
NCI-H226 = system: NCI-H226
SR = system: SR
MDA-MB-231 = system: MDA-MB-231
OVCAR-5 = system: OVCAR-5
OVCAR-8 = system: OVCAR-8
HCT-15 = system: HCT-15
TK-10 = system: TK-10
COLO 205 = system: COLO 205
HOP-92 = system: HOP-92
SNB-75 = system: SNB-75
OVCAR-4 = system: OVCAR-4
HOP-62 = system: HOP-62
BT-549 = system: BT-549
RXF 393 = system: RXF 393
DU-145 = system: DU-145
SN12C = system: SN12C
K562 = system: K562
UACC-257 = system: UACC-257
UACC-62 = system: UACC-62
T47D = system: T47D
U-251 = system: U-251
LOX IMVI = system: LOX IMVI
NCI/ADR-RES = system: NCI/ADR-RES
NCI-H460 = system: NCI-H460
A549 = system: A549
SK-OV-3 = system: SK-OV-3
CCRF-CEM = system: CCRF-CEM
NCI-H23 = system: NCI-H23
MCF7 = system: MCF7
Malme-3M = system: Malme-3M
NCI-H522 = system: NCI-H522
HCC 2998 = system: HCC 2998
SW-620 = system: SW-620
Hs-578T = system: Hs-578T
HL-60 = system: HL-60
MDA-N = system: MDA-N
SF-295 = system: SF-295
IGROV-1 = system: IGROV-1
RPMI-8226 = system: RPMI-8226
MOLT-4 = system: MOLT-4
SK-MEL-2 = system: SK-MEL-2
A498 = system: A498
CAKI-1 = system: CAKI-1

CCOC1NC(=O)c2ccccc21 (stereo unspecified)
GI50 (M14): > 100 µM (inactive)
GI50 (SF-539): > 100 µM (inactive)
GI50 (OVCAR-3): > 100 µM (inactive)
GI50 (MDA-MB-435): > 100 µM (inactive)
GI50 (EKVX): > 100 µM (inactive)
GI50 (KM12): > 100 µM (inactive)
GI50 (786-0): > 100 µM (inactive)
GI50 (SNB-19): > 100 µM (inactive)
GI50 (UO-31): > 100 µM (inactive)
GI50 (SK-MEL-28): > 100 µM (inactive)
GI50 (SF-268): > 100 µM (inactive)
GI50 (HCT-116): > 100 µM (inactive)
GI50 (ACHN): > 100 µM (inactive)
GI50 (PC-3): > 100 µM (inactive)
GI50 (SK-MEL-5): > 100 µM (inactive)
GI50 (HT-29): > 100 µM (inactive)
GI50 (NCI-H226): > 100 µM (inactive)
GI50 (SR): > 100 µM (inactive)
GI50 (MDA-MB-231): > 100 µM (inactive)
GI50 (OVCAR-5): > 100 µM (inactive)
GI50 (OVCAR-8): > 100 µM (inactive)
GI50 (HCT-15): > 100 µM
GI50 (TK-10): > 100 µM (inactive)
GI50 (COLO 205): > 100 µM (inactive)
GI50 (HOP-92): > 100 µM (inactive)
GI50 (SNB-75): > 100 µM (inactive)
GI50 (OVCAR-4): > 100 µM (inactive)
GI50 (HOP-62): > 100 µM (inactive)
GI50 (BT-549): > 100 µM (inactive)
GI50 (RXF 393): > 100 µM (inactive)
GI50 (DU-145): > 100 µM (inactive)
GI50 (SN12C): > 100 µM (inactive)
GI50 (K562): > 100 µM (inactive)
GI50 (UACC-257): > 100 µM (inactive)
GI50 (UACC-62): > 100 µM (inactive)
GI50 (T47D): > 100 µM (inactive)
GI50 (U-251): > 100 µM (inactive)
GI50 (LOX IMVI): > 100 µM (inactive)
GI50 (NCI/ADR-RES): > 100 µM (inactive)
GI50 (NCI-H460): > 100 µM (inactive)
GI50 (A549): > 100 µM (inactive)
GI50 (SK-OV-3): > 100 µM (inactive)
GI50 (CCRF-CEM): > 100 µM (inactive)
GI50 (NCI-H23): > 100 µM (inactive)
GI50 (MCF7): > 100 µM (inactive)
GI50 (Malme-3M): > 100 µM (inactive)
GI50 (NCI-H522): > 100 µM (inactive)
GI50 (HCC 2998): > 100 µM (inactive)
GI50 (SW-620): > 100 µM (inactive)
GI50 (Hs-578T): > 100 µM (inactive)
GI50 (HL-60): > 100 µM (inactive)
GI50 (MDA-N): > 100 µM (inactive)
GI50 (SF-295): > 100 µM (inactive)
GI50 (IGROV-1): > 100 µM (inactive)
GI50 (RPMI-8226): > 100 µM (inactive)
GI50 (MOLT-4): > 100 µM (inactive)

CC(=O)Nc1ccc2nncnc2c1
GI50 (M14): > 100 µM (inactive)
GI50 (SF-539): > 100 µM (inactive)
GI50 (OVCAR-3): > 100 µM (inactive)
GI50 (MDA-MB-435): > 100 µM (inactive)
GI50 (EKVX): > 100 µM (inactive)
GI50 (KM12): > 100 µM (inactive)
GI50 (786-0): > 100 µM (inactive)
GI50 (SNB-19): > 100 µM (inactive)
GI50 (UO-31): > 100 µM (inactive)
GI50 (SK-MEL-28): > 100 µM (inactive)
GI50 (SF-268): > 100 µM (inactive)
GI50 (HCT-116): > 100 µM (inactive)
GI50 (ACHN): > 100 µM (inactive)
GI50 (PC-3): > 100 µM (inactive)
GI50 (SK-MEL-5): > 100 µM (inactive)
GI50 (HT-29): > 100 µM (inactive)
GI50 (NCI-H226): > 100 µM (inactive)
GI50 (SR): > 100 µM (inactive)
GI50 (MDA-MB-231): > 100 µM (inactive)
GI50 (OVCAR-5): > 100 µM (inactive)
GI50 (SK-MEL-2): > 100 µM (inactive)
GI50 (OVCAR-8): > 10 µM (inactive)
GI50 (HCT-15): > 100 µM
GI50 (TK-10): > 100 µM (inactive)
GI50 (COLO 205): > 100 µM (inactive)
GI50 (SNB-75): > 100 µM (inactive)
GI50 (OVCAR-4): > 100 µM (inactive)
GI50 (A498): > 100 µM (inactive)
GI50 (HOP-62): > 100 µM (inactive)
GI50 (BT-549): > 100 µM (inactive)
GI50 (DU-145): > 100 µM (inactive)
GI50 (SN12C): > 100 µM (inactive)
GI50 (K562): > 100 µM (inactive)
GI50 (UACC-257): > 100 µM (inactive)
GI50 (UACC-62): > 100 µM (inactive)
GI50 (T47D): > 100 µM (inactive)
GI50 (U-251): > 100 µM (inactive)
GI50 (LOX IMVI): > 100 µM (inactive)
GI50 (NCI/ADR-RES): > 100 µM (inactive)
GI50 (NCI-H460): > 100 µM (inactive)
GI50 (A549): > 100 µM (inactive)
GI50 (SK-OV-3): > 100 µM (inactive)
GI50 (CCRF-CEM): > 100 µM (inactive)
GI50 (NCI-H23): > 100 µM (inactive)
GI50 (MCF7): > 100 µM (inactive)
GI50 (NCI-H522): > 100 µM (inactive)
GI50 (SW-620): > 100 µM (inactive)
GI50 (CAKI-1): > 100 µM (inactive)
GI50 (Hs-578T): 77.6 µM (inactive)
GI50 (HL-60): > 100 µM (inactive)
GI50 (MDA-N): > 100 µM (inactive)
GI50 (SF-295): > 100 µM (inactive)
GI50 (IGROV-1): > 100 µM (inactive)
GI50 (RPMI-8226): > 100 µM (inactive)
GI50 (MOLT-4): > 100 µM (inactive)

CCOC(=O)c1nc2ccccc2nc1Nc1ccc(C(=O)OC)s1
GI50 (M14): > 100 µM (inactive)
GI50 (SF-539): > 100 µM (inactive)
GI50 (OVCAR-3): > 100 µM (inactive)
GI50 (MDA-MB-435): > 100 µM (inactive)
GI50 (EKVX): > 100 µM (inactive)
GI50 (KM12): > 100 µM (inactive)
GI50 (786-0): > 100 µM (inactive)
GI50 (SNB-19): > 100 µM (inactive)
GI50 (UO-31): > 100 µM (inactive)
GI50 (SK-MEL-28): > 100 µM (inactive)
GI50 (SF-268): > 100 µM (inactive)
GI50 (HCT-116): > 100 µM (inactive)
GI50 (ACHN): > 100 µM (inactive)
GI50 (PC-3): > 100 µM (inactive)
GI50 (SK-MEL-5): > 100 µM (inactive)
GI50 (HT-29): > 100 µM (inactive)
GI50 (SR): > 100 µM (inactive)
GI50 (MDA-MB-231): > 100 µM (inactive)
GI50 (OVCAR-5): > 100 µM (inactive)
GI50 (SK-MEL-2): > 100 µM (inactive)
GI50 (OVCAR-8): > 100 µM (inactive)
GI50 (HCT-15): > 100 µM
GI50 (TK-10): > 100 µM (inactive)
GI50 (COLO 205): > 100 µM (inactive)
GI50 (HOP-92): > 100 µM (inactive)
GI50 (SNB-75): > 100 µM (inactive)
GI50 (OVCAR-4): > 100 µM (inactive)
GI50 (A498): > 100 µM (inactive)
GI50 (HOP-62): > 100 µM (inactive)
GI50 (BT-549): > 100 µM (inactive)
GI50 (DU-145): > 100 µM (inactive)
GI50 (SN12C): > 100 µM (inactive)
GI50 (UACC-257): > 100 µM (inactive)
GI50 (UACC-62): > 100 µM (inactive)
GI50 (T47D): > 100 µM (inactive)
GI50 (U-251): > 100 µM (inactive)
GI50 (LOX IMVI): > 100 µM (inactive)
GI50 (NCI/ADR-RES): > 100 µM (inactive)
GI50 (NCI-H460): > 100 µM (inactive)
GI50 (A549): > 100 µM (inactive)
GI50 (CCRF-CEM): > 100 µM (inactive)
GI50 (NCI-H23): > 100 µM (inactive)
GI50 (MCF7): > 100 µM (inactive)
GI50 (Malme-3M): 18.5 µM (inactive)
GI50 (NCI-H522): 47.4 µM (inactive)
GI50 (HCC 2998): > 100 µM (inactive)
GI50 (SW-620): > 100 µM (inactive)
GI50 (CAKI-1): > 100 µM (inactive)
GI50 (Hs-578T): > 100 µM (inactive)
GI50 (HL-60): > 100 µM (inactive)
GI50 (MDA-N): > 100 µM (inactive)
GI50 (SF-295): > 100 µM (inactive)
GI50 (IGROV-1): > 100 µM (inactive)
GI50 (RPMI-8226): > 100 µM (inactive)
GI50 (MOLT-4): > 100 µM (inactive)
